Assay results published in US20230295086A1, “NOVEL PSILOCIN DERIVATIVES HAVING PRODRUG PROPERTIES” (COMPASS […], priority 2020, published 2023).
Marks after values point to notes of the source that are not given here.

Tests used:
[1] = target: T1, serotonin 2A (5-HT2A) receptor (Mus musculus, UniProt P35363); test: Head twitch response (HTR) in mice; assay type: in vivo, male C57BL/6J mice; conditions: oral gavage 0.3 mg/kg
T1 construct: tissue Charles River UK; host or cells: whole living male C57BL/6J mice (in vivo, oral gavage)
T1 sequence (P35363 whole entry): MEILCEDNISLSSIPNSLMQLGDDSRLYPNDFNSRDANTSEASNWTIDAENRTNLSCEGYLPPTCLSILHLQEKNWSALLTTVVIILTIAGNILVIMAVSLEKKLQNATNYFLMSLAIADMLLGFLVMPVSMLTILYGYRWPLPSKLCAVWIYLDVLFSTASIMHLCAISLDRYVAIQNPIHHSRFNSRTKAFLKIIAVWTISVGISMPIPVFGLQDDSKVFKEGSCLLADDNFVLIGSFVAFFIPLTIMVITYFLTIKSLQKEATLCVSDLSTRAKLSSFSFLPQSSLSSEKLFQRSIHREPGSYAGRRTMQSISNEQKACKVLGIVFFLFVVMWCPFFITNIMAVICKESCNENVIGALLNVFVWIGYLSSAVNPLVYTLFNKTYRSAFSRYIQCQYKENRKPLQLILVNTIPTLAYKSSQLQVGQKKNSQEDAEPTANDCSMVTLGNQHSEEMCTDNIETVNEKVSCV

[2] = Kinetic solubility assay (Example 11); conditions: 50 mM PB pH 7.4, target 200 μM, 24 hours shaking at room temperature, UPLC; test compound as hydrochloride
Protocol: Test and control compounds were diluted to 10 mM in DMSO and then further diluted 1 in 50 in 50 mM PB (pH 7.4) to a target concentration of 200 μM. Samples were vortexed for at least 2 minutes and then left to shake (800 rpm) at room temperature for 24 hours. Visual appearance was assessed before centrifugation and injection into a UPLC system to measure concentration. […] Each compound was tested in duplicate.

[3] = Shake flask Log D assay (Example 11); assay type: physicochemical; conditions: 1-Octanol / 100 mM PB pH 7.4, shake flask, LC-MS/MS; test compound as hydrochloride
Protocol: Test and control compounds were diluted to 10 mM in DMSO. 2 μl of each stock solution was aliquoted into tubes in duplicate. 1-Octanol saturated phosphate buffer (PB) (pH 7.4) was prepared by adding 1-Octanol into 100 ml of 100 mM PB (7.4). PB saturated 1-Octanol was prepared by adding 10 ml of 100 mM PB (7.4) into 100 ml of 1-Octanol. 149 μl of each solution was aliquoted into the corresponding tubes. These were then mixed vigorously for 2 minutes and shaken (800 rpm) at room temperature for one hour. The appropriate volume of buffer and 1-Octanol layer samples was aliquoted and diluted, before detection using LC-MS/MS.
Log D was calculated according to the following equation: […]

[4] = Pharmacokinetics in the mouse (plasma psilocin); assay type: in vivo, male C57BL/6J mice; conditions: IV, 0.3 mg/kg
Protocol: 27 male C57BL/6J mice weighing 22-25 g at time of purchase (Charles River UK) were group housed (3 s) in polypropylene cages. Mice were maintained on a normal phase 12 hr light-dark cycle (lights on from 07:00-19:00) with ad libitum access to standard pelleted diet (Envigo 2018) and filtered tap water. The holding room was maintained at 21±4° C. with a relative humidity of 55±15%.
Mice were weighed on the day of dosing and identified by a tail mark using a permanent marker pen. Food was not withdrawn on the day of dosing. […] The remaining animals were divided into two cohorts, with animals in the first cohort receiving a single oral dose of one of the test compounds and animals in the second cohort receiving a single intravenous dose (in a lateral tail vein) of one of the test compounds. Following treatment, animals dosed orally were bled by venesection from the lateral tail vein at 5, 15, 30, 45, 60, 120, and 240 minutes post-dosing. Animals dosed intravenously were bled by venesection from the opposite lateral tail vein at the same timepoints. […] All compounds were formulated in saline and dosed in a volume of 5 ml/kg.
25 μl of blood was collected per animal per timepoint. […] Psilocin levels within samples were determined using LC-MS/MS. All pharmacokinetic parameters were calculated manually. […]

[5] = Intake study: serum concentrations after oral ingestion by two volunteers; conditions: for c(Psilocin): study 2
Protocol: Two volunteers (1 M, 1 F) ingested about 1 mg of each one of P1 and M1 (Study 1) and P2 and M2 (Study 2) in gelatin capsules (exact amounts in Tables 3 and 4). One blood sample was collected prior to ingestion of the substances and served as a zero control. After ingestion samples were collected for about 8 h with increasing time intervals between sample taking (exact protocol in Tables 4 and 5). […] The obtained sera were transferred in plastic tubes and NaF (ca. 30 mg) and ascorbic acid (ca. 5 mg) were added to increase analytes stability.
200 μL serum were spiked with an internal standard solution (10 μL) and ACN (600 μL) was added to precipitate soluble proteins. Before mixing thoroughly ammonium formate (10 M, 200 μL) was added separate the aqueous from the organic phase. After centrifugation (6 min, 4,000×g), 500 μL of the organic phase were transferred into another vial and evaporated to dryness at 40° C. under a gentle stream of nitrogen. Samples were reconstituted in 100 μL mobile phase (A/B, 90/10, v/v) and used for analysis. For quantification a blank sample and a six point calibration (0.5, 1.0, 2.0, 5.0, 10, 20 ng/mL) in calf serum were prepared as described above.
The HPLC-MS system consisted of a Nexera X2 UHPLC system composed of three LC-30AD pumps, a DGU-30A3 degasser, a SIL-30AC autosampler, a CTO-10AS column oven and a CBM-20A controller (Shimadzu, Duisburg, Germany) coupled to a QTRAP 6500plus triple quadrupole linear ion trap mass spectrometer equipped with a TurbolonSpray Interface (Sciex, Darmstadt, Germany). The MS was operated in positive electrospray ionization mode. Data acquisition was performed in scheduled multiple reaction monitoring mode (detection window: 60 s) using Analyst software (version 1.7). MS parameters (declustering potential, entrance potential, collision energy, and collision cell exit potential) were optimized for all substances to obtain the best possible signal intensities (summary of the MRM parameters are given in Table 5). Ion source temperature and ion source voltage were set to 550° C. and +5500 V, respectively. Dwell time was 20 ms for every MRM transition. Curtain gas (N2) pressure was 35 psi, ion source gas 1 and 2 (compressed air) pressure were 50 and 60 psi, respectively, and collision gas (N2) pressure was set to “high.” Chromatographic separation was performed on a Kinetex® biphenyl column (100×2.1 mm, 2.6 μm particle size, Phenomenex, Aschaffenburg, Germany) with a corresponding guard column (SecurityGuard™ ULTRA Cartridges UHPLC Biphenyl for 2.1 mm ID columns, Phenomenex, Aschaffenburg, Germany). The autosampler and the column oven temperature were set to 10° C. and 40° C., respectively. The injection volume was 10 μL.

[6] = Stability of psilocin carbonates in 1% HCl; assay type: physicochemical; conditions: 37° C., approximately 26 hours, LC-MS
Protocol: 4 mg of each test compound was diluted in 2 ml distilled water to give a solution of 2 mg/ml. 2 ml of test compound solutions were then added to 2 ml of 2% (v/v) HCl in distilled water, yielding a final HCl concentration of […] (pH 0.5). Test solutions were incubated at 37° C. with continuous stirring for approximately 26 hours. Concentrations of parent compound and psilocin were analyzed at various timepoints using LC-MS. Concentrations of both parent prodrug and psilocin liberated were expressed relative to the starting concentration of parent prodrug.

[7] = Micro shake flask Log D; conditions: Octanol:PBS 1:9, pH 7.4, 10 μM, six replicates; novel compounds as hemifumarate
Protocol: 6 replicates of each test compound were incubated at 10 μM in a 1:9 ratio of Octanol: PBS at pH 7.4. Following a two hour incubation at room temperature shaking at 600 rpm, the incubation plate was centrifuged for 15 minutes to separate the layers and then two aliquots were removed from the PBS layer. The first was left neat and the second was diluted 10-fold to give dilute samples. Internal standards were added to both the calibration curve and the PBS incubation samples for analysis on LC MS/MS.
All 6 replicates of the neat samples were averaged to give one value for each, with the same calculation performed for the dilute sample values.

[8] = serum, oral intake of about 1 mg prodrug, mean of 2 volunteers

## CN(C)CCc1c[nH]c2cccc(OC(=O)OCc3ccccc3)c12 [Psilocin-4-yl-benzylcarbonate, psilocin-4-yl benzyl carbonate]
[1]; N = 8
  Mean number of head twitches 0-15 mins: 2.63
  Mean number of head twitches 30-45 mins: 1.88
  Mean number of head twitches 45-60 mins: 1.13
  Mean number of head twitches Total 0-60 mins: 8.2
[1]; N = 8, 0.3 mg/kg
  Mean number of head twitches 15-30 mins: 4.13
[1]; N = 8, listed as Psilocin-4-yl-benylcarbonate, 0.3 mg/kg
  Mean number of head twitches 15-30 mins: of similar magnitude to that induced by psilocybin
[2]
  Detected concentration: 230 µM
[3]
  Mean LogD: 2.19
[4]
  Cmax (psilocin): approximately double that of psilocybin

## CN(C)CCc1c[nH]c2cccc(OC(=O)OC(C)(C)C)c12 [Psilocin-4-yl-tert-butylcarbonate, psilocin-4-yl tert-butyl carbonate]
[5]; serum after oral ingestion of about 1 mg
  Parent prodrug itself in serum (not detected, LOD): < 0.07 ng/mL
[5]; [8]
  Cmax of psilocin: 1.13 ± 0.01 ng/mL
  Tmax of psilocin: 1.5 ± 0.933 h
  elimination constant kel of psilocin: 0.0043 min⁻¹
  elimination half life t1/2 of psilocin: 2.67 h
[5]; serum, test person A, oral P2 0.98 mg salt, 4 min, below LOQ, extrapolated
  c(Psilocin): 0.16* ng/mL
[5]; serum, test person A, oral P2 0.98 mg salt, 12 min, below LOQ, extrapolated
  c(Psilocin): 0.16* ng/mL
[5]; serum, test person A, oral P2 0.98 mg salt, 23 min, below LOQ, extrapolated
  c(Psilocin): 0.21* ng/mL
[5]; serum, test person A, oral P2 0.98 mg salt, 34 min, below LOQ, extrapolated
  c(Psilocin): 0.22* ng/mL
[5]; serum, test person A, oral P2 0.98 mg salt, 50 min
  c(Psilocin): 0.43 ng/mL
[5]; serum, test person A, oral P2 0.98 mg salt, 77 min
  c(Psilocin): 0.57 ng/mL
[5]; serum, test person A, oral P2 0.98 mg salt, 113 min
  c(Psilocin): 0.99 ng/mL
[5]; serum, test person A, oral P2 0.98 mg salt, 130 min
  c(Psilocin): 1.14 ng/mL
[5]; serum, test person A, oral P2 0.98 mg salt, 165 min
  c(Psilocin): 0.96 ng/mL
[5]; serum, test person A, oral P2 0.98 mg salt, 205 min
  c(Psilocin): 0.83 ng/mL
[5]; serum, test person A, oral P2 0.98 mg salt, 270 min
  c(Psilocin): 0.66 ng/mL
[5]; serum, test person A, oral P2 0.98 mg salt, 335 min
  c(Psilocin): 0.47 ng/mL
[5]; serum, test person A, oral P2 0.98 mg salt, 395 min
  c(Psilocin): 0.40 ng/mL
[5]; serum, test person A, oral P2 0.98 mg salt, 458 min, below LOQ, extrapolated
  c(Psilocin): 0.30* ng/mL
[5]; serum, test person B, oral P2 1.05 mg salt, 6 min, below LOQ, extrapolated
  c(Psilocin): 0.24* ng/mL
[5]; serum, test person B, oral P2 1.05 mg salt, 13 min, below LOQ, extrapolated
  c(Psilocin): 0.26* ng/mL
[5]; serum, test person B, oral P2 1.05 mg salt, 22 min
  c(Psilocin): 0.48 ng/mL
[5]; serum, test person B, oral P2 1.05 mg salt, 34 min
  c(Psilocin): 0.75 ng/mL
[5]; serum, test person B, oral P2 1.05 mg salt, 50 min
  c(Psilocin): 1.12 ng/mL
[5]; serum, test person B, oral P2 1.05 mg salt, 77 min
  c(Psilocin): 1.12 ng/mL
[5]; serum, test person B, oral P2 1.05 mg salt, 100 min
  c(Psilocin): 0.92 ng/mL
[5]; serum, test person B, oral P2 1.05 mg salt, 127 min
  c(Psilocin): 0.73 ng/mL
[5]; serum, test person B, oral P2 1.05 mg salt, 165 min
  c(Psilocin): 0.53 ng/mL
[5]; serum, test person B, oral P2 1.05 mg salt, 205 min
  c(Psilocin): 0.51 ng/mL
[5]; serum, test person B, oral P2 1.05 mg salt, 270 min
  c(Psilocin): 0.40 ng/mL
[5]; serum, test person B, oral P2 1.05 mg salt, 331 min
  c(Psilocin): 0.33 ng/mL
[5]; serum, test person B, oral P2 1.05 mg salt, 394 min, below LOQ, extrapolated
  c(Psilocin): 0.30* ng/mL
[5]; serum, test person B, oral P2 1.05 mg salt, 454 min, below LOQ, extrapolated
  c(Psilocin): 0.29* ng/mL
[6]
  Degradation of parent compound / conversion to psilocin: rapid and complete chemical degradation to psilocin within approximately four hours
[1]; N = 8
  Mean number of head twitches 0-15 mins: 3
  Mean number of head twitches 15-30 mins: 2
  Mean number of head twitches 30-45 mins: 1.5
  Mean number of head twitches 45-60 mins: 0.13
  Mean number of head twitches Total 0-60 mins: 6.48
[7]
  Mean LogD: 1.50
